The values that follow come from US10067145B2, “Method for removing genomically unstable IPS cells and synthetic peptide used therefor” (TOAGOSEI CO., LTD., priority 2013, dated 2018).

No end group written: not given here.

The subject of experiment [1] is human iPS cell strain 201B7. The experiment in a line: Evaluation of calreticulin expression inducing activity of synthetic peptides (immunofluorescence antibody assay), genomically stable iPS cells. The experiment is classed as cell-based. The conditions noted are these: peptide 10 μM in mTeSR 1 medium, 5 days, medium replaced every day; anti-calreticulin antibody, confocal laser microscope. The text has this: (§1) In the following Examples, iPS cells were used as an example of pluripotent stem cells. Specifically, cells used for tests were a genomically stable (specifically without a chromosome aberration) human iPS cell strain (clone: 201B7, hereinafter also merely referred to as 201B7) and a human iPS cell strain (clone: 201B2 hereinafter also merely referred to as 201B2) containing genomically unstable (specifically, chromosome 12 is triploid (trisomy)) cells. Both 201B7 and 201B2 are clones of iPS cells established from the same human fibroblasts (source: Takahashi K et al., Cell, 131, 861-872 (2007)). The iPS cells were provided by the Center for iPS Cell Research and Application, Kyoto University. […]
(§2) A primary antibody diluted solution prepared by adjusting a primary antibody, an anti-calreticulin monoclonal [FMC75] antibody (murine, available from Abeam, Cat No. ab22683, Lot No. GR56669-4), to a final concentration of 4×10^−3 mg/mL in 1% BSA/PBS (−) (PBS (−) containing 1% BSA) was added to the culture vessel of the iPS cells, and the mixture was left to stand overnight at 4° C. or 2 hours at room temperature. […] Thereafter, mounting was carried out with a DAPI (4′,6-diamidino-2-phenylindole)-containing mounting medium (available from Life Technologies) and a cover glass and fluorescence was observed under a confocal laser microscope. […]

For experiment [2], the system named is human iPS cell strain 201B2 (chromosome 12 trisomy). The experiment in a line: Evaluation of calreticulin expression inducing activity of synthetic peptides (immunofluorescence antibody assay), genomically unstable iPS cells. The class given is cell-based. The following applies: peptide 10 μM in mTeSR 1 medium, 5 days, medium replaced every day; anti-calreticulin antibody, confocal laser microscope.
Description: as §1, §2

For “KKRTLRKNDRKKR GG CRAKAGDPC (KKRTLRKNDRKKRGGCRAKAGDPC-NH2; cysteine pairing not given here) [sample 1, linear synthetic calreticulin expression inducing peptide, 24 residues]”, the “expression level of calreticulin in 201B7 (fluorescence of the label detecting calreticulin) compared to cells without addition of peptides” value in experiment [1] is on record as “almost no increase”. Moreover, in experiment [2], the “expression level of calreticulin in 201B2 (fluorescence of the label detecting calreticulin) compared to cells without addition of peptides” value is recorded as “significantly increased”.
